Measurements from publication PMC12234328, “A naphthalimide derivative exerts potent antiplatelet and antithrombotic activities without a bleeding tendency” (Frontiers in Pharmacology, 2025).

How the values were obtained:
[1] = tested on: FeCl3-induced thrombosis in mesenteric artery; test: FeCl3-induced mesenteric artery thrombosis in mice; format: in vivo; settings: 1.2 mg/kg i.v., 30% FeCl3, relative to DMSO group
Protocol: Mice were anesthetized with an oxygen–air mixture containing 3% isoflurane at a gas flow rate of 1.5–2 L/min. To label platelets, they were injected with the fluorescent dye rhodamine 6G (0.6 mg/kg). 10 min before FeCl3 treatment, mice were intravenously administered DMSO (1.1 g/kg, solvent control), compound 6 (1.2 mg/kg), or aspirin (20 mg/kg, positive control). The mesenteric arteries were surgically exposed and injured by applying a filter paper saturated with 30% FeCl3 for 5 min to induce thrombosis. Thrombus formation was then continuously monitored using a fluorescence microscope (Olympus, Tokyo, Japan).
FIGURE 4 Effects of compound 6 on collagen/epinephrine-induced pulmonary thrombosis and FeCl3-induced thrombosis in mesenteric artery. Mice were intravenously administered with DMSO (solvent control), compound 6 (1.2 mg/kg), or aspirin (20 mg/kg, positive control) for 10 min (A) Mice were injected with collagen/epinephrine to induce pulmonary embolism, which was detected through staining with Evans blue (left panel). The survival rate was recorded for 24 h (right panel). Data are presented as means ± SEM (n = 6). **p < 0.01 compared with the sham group. #p < 0.05 compared with the DMSO (solvent control) group. (B) FeCl3-induced thrombosis in mesenteric artery as observed under real-time fluorescent microscopy. […] Scale bar = 100 µm. […]

[2] = tested on: human platelet suspensions stimulated with convulxin; test: Convulxin-induced platelet aggregation; format: cell-based; settings: 10–50 μM, convulxin 4 ng/mL
Description: (§1) This study received approval from the Taipei Medical University–Joint Institutional Review Board (TMU-JIRB-No. N202003148) and adhered to the principles of the Declaration of Helsinki. Informed consent was obtained from all volunteers before their participation. Human platelets were washed and prepared according to previously established methods ([Lu et al., 2019]). Whole blood was collected from healthy participants who had not taken any medications, including nonsteroidal anti-inflammatory drugs or aspirin, in the preceding 2 weeks. The blood was drawn into polypropylene tubes containing an acid citrate–dextrose solution (9:1, v/v). After mixing, the samples were centrifuged at 120 g for 10 min. The upper layer of platelet-rich plasma was collected and supplemented with prostaglandin E1 and heparin. Following further centrifugation at 500 g for 10 min, the platelet pellets were washed twice. The platelets were then resuspended in Tyrode’s solution containing 3.5 mg/mL bovine serum albumin (B.S.A.) to create platelet suspensions. The final Ca^2+ concentration of the platelet suspensions (3.6 × 10^8 cells/mL) was 1 mM.
(§2) Platelet aggregation was measured using a lumi-aggregometer (Payton, Scarborough, Canada) through the turbidimetric method ([Lu et al., 2019]). […] Subsequently, various agonists were added and platelet aggregation was then recorded for an additional 6 min. […]

[3] = tested on: human platelet suspensions stimulated with collagen; test: Collagen-induced platelet aggregation (turbidimetric, lumi-aggregometer); format: cell-based
Description: as §1
Platelet aggregation was measured using a lumi-aggregometer (Payton, Scarborough, Canada) through the turbidimetric method ([Lu et al., 2019]). Human platelet suspensions (3.6 × 10^8 cells/mL) were treated with compound 6 (1–50 μM) or an isovolumetric solvent control (0.1% DMSO) for 3 min. Subsequently, various agonists were added and platelet aggregation was then recorded for an additional 6 min.
FIGURE 2 Effects of compound 6 on human platelet aggregation triggered by various agonists. (A–C) Washed platelets (3.6 × 10^8 cells/mL) were treated with compound 6 (1–50 μM) or dimethyl sulfoxide (DMSO; solvent control) before adding 1 μg/mL collagen (A), 0.02 U/mL thrombin (B), and 1 μM U46619 (C). Panels A–C present the curve of platelet aggregation, and panel D presents the statistical analysis of panels A–C. Data (D) are presented as means ± SEM (n = 4). ###p < 0.001 compared with the DMSO group.

[4] = tested on: human platelet suspensions stimulated with thrombin; test: Thrombin-induced platelet aggregation; format: cell-based; settings: 5–50 μM, 0.02 U/mL thrombin
Description: as §1, §2

[5] = tested on: collagen-triggered calcium mobilization in human platelets; test: Calcium mobilization in human platelet suspensions (Fura-2 AM); format: cell-based; settings: 2.5 and 5 μM, collagen 1 μg/mL, n = 4
Protocol: Adenosine triphosphate (ATP) release and calcium mobilization were assessed as previously described ([Shih et al., 2021]). Luciferase–luciferin and Fura-2 AM were used to detect ATP release and calcium mobilization, respectively. The intensity of luminescence (indicating ATP release) and the fluorescence ratio (340 nm/380 nm) for calcium mobilization were measured using a Hitachi Spectrometer F-7000 (Tokyo, Japan) following the manufacturer’s instructions.
(§3) FIGURE 8 Effects of compound 6 on ATP release, calcium mobilization, and GPIIb–IIIa activation triggered by collagen in human platelets. Washed platelets (3.6 × 10^8 cells/mL) were treated with compound 6 (C6, 2.5 and 5 μM) or DMSO and then stimulated with collagen (1 μg/mL) to trigger ATP release (A), calcium mobilization (B), and GPIIb–IIIa activation (C) that were detected using luciferase/luciferin, Fura-2 AM, and APC–PAC1 antibodies, respectively. Data (A–C) are presented as means ± SEM (n = 4). **p < 0.01 and ***p < 0.001 compared with the resting group. #p < 0.05, ##p < 0.01, and ###p < 0.001 compared with the DMSO (solvent control) group.

[6] = tested on: GPIIb–IIIa activation in human platelets; test: GPIIb-IIIa activation by flow cytometry (APC-PAC-1); format: cell-based; settings: 2.5 and 5 μM, collagen 1 μg/mL, n = 4
Protocol: Flow cytometry was performed as previously described ([Lien et al., 2017]). After 20 min of collagen stimulation, the human platelets were fixed and labeled with APC-conjugated PAC-1 antibodies for 30 min to detect the level of GPIIb–IIIa activation. After centrifugation and washing, the platelets were suspended in 1 mL of phosphate-buffered saline and analyzed using a CytoFLEX flow cytometer (Beckman Coulter Life Sciences, Indianapolis, IN, United States). In the flow cytometry setup, platelets were gated using forward scatter and side scatter, and the number of events was set to stop at 10,000 counts. All experiments were performed at least three times to ensure reliable results.
as §3

Question: For `CCCCN1C(=O)c2cccc3c(NCCNC(=O)C45CC6CC(CC(C6)C4)C5)ccc(c23)C1=O` [compound 6], which “Platelet accumulation on the injured vessels (rhodamine 6G-labeled platelets)” value [1] is on record?
Answer: delayed platelet accumulation

Question: What about the “Effect on convulxin-induced platelet aggregation” value [2] of the same compound?
Answer: can inhibit convulxin-induced platelet aggregation

Question: What about the “Antiplatelet effect at the same concentration, compound 6 versus compound 5” value ([3]; 5 μM, collagen 1 μg/mL, Supplementary Figure S1) of the same compound?
Answer: better antiplatelet effects than compound 5

Question: What about the IC50 ([3]; Platelet, washed human platelets, 1 μg/mL collagen) of the same compound?
Answer: ~2.5 µM

Question: What about the “Potency in inhibiting collagen-induced platelet aggregation relative to compound 5” value ([3]; comparison with ref Shih et al., 2021) of the same compound?
Answer: twice as high

Question: And the “Effect on thrombin-induced platelet aggregation” value [4]?
Answer: did not significantly affect

Question: And the Calcium mobilization [5]?
Answer: significantly reduce

Question: What about the “GPIIb–IIIa activation” value [6] of the same compound?
Answer: significantly reduce
